Experiments:
[1] = system: cerulein pancreatitis (CER-AP); assay: Drug treatment of cerulein pancreatitis (CER-AP) in WT mice; format: in vivo, mouse
Description: FIGS. 10A-10N show deranged cholesterol metabolism causes acinar cell damage, while its normalization ameliorates experimental pancreatitis. (A-D) Cholesterol content and trypsin activity were measured (per mg protein) in WT mouse acinar cells incubated for 1 hour without and with methyl-β-cyclodextrin (MCD; 10 mM) or cholesterol-loaded MCD (MCD-Chol; 200 μg/mL), in the presence or absence of 100 nM CCK. Values are expressed relative to those in cells without MCD/MCD-Chol. (E-J) WT mice received daily i.p. injections of the LXR agonist T0901317 (T09), simvastatin (Sim; 20 mg/kg each), or vehicle. On day 4, mice were subjected to CER-AP and pancreata collected for analyses (see also FIG. 20). Cholesterol content (E), trypsin activity (F), and pancreas histopathology (H&E staining; G) were measured. (H, I, L, and N) IB analysis of markers/mediators of autophagy (LC3, p62), ER stress (CHOP, GRP-78), and mitophagy (Parkin). Ub, ubiquitylated proteins. (J) Mitochondrial fragmentation was assessed by immunostaining for Tom20, as detailed in FIG. 7G. (K and L) Mouse acinar cells were treated for 16 hours with LDL (30 μg/mL) or the combination of LDL and 10 μM U18666A. (M and N) Mice received injections of U18666A as detailed in FIG. 9B. Pancreas histopathology (H&E staining; M) and levels of autophagy markers/mediators (N) were measured. Each symbol in A-F and I represents an individual mouse or cell preparation. Values are mean±SEM from 3 to 7 mice or cell preparations per condition. ^§ P<0.05, ^§§ P<0.01 vs. control cells (without MCD/MCD-Chol). ***P<0.001 vs. saline-treated mice. ^#P<0.05, ^##P<0.01, ^###P<0.001 vs. CER-AP alone (no inhibitors). Significance was determined by 2-tailed Student's t test (A-D) or 1-way ANOVA followed by Tukey's multiple comparison test (E, F, and I). Scale bars: 10 μm.
FIGS. 20A-20C show simvastatin improves cerulein pancreatitis. Mice received daily i.p. injections of simvastatin (Sim; 20 mg/kg) or vehicle (see FIG. 10), and on day 4 were subjected to cerulein pancreatitis (CER-AP). (A) Pancreas histopathology (H&E staining; scale: 10 μm). (B) IB analysis of markers/mediators of autophagy (LC3, p62), ER stress (CHOP), and the MLN64/STARD3 protein mediating cholesterol transfer from LE/Ly to mitochondria. Each IB lane represents an individual mouse; ERK1/2 is the loading control. […] Ub, ubiquitylated proteins. (C) Pancreatitis responses. Values are mean±SEM from 7-13 mice for each condition. ***p<0.001 vs saline control. ^###p<0.001 vs CER-AP alone (no simvastatin). Significance was determined by 1-way ANOVA followed by Tukey's multiple comparisons test.
FIGS. 25A-25C show reducing cholesterol overload greatly ameliorates experimental pancreatitis. CER-AP responses were measured in (A) AclyAac or (C) WT mice treated with simvastatin or bempedoic acid (BemA). (B) Acinar cells were transfected with ACLA (or mock) siRNA and subjected to ex-vivo CCK-AP. Each symbol represents an individual mouse or cell preparation. Values are mean±SE. **p<0.01, ***p<0.001 vs saline treated control mice (or mock transfection); #p<0.05, ##p<0.01, ###p<0.001 vs CER/CCK-AP in control mice (i.e. without inhibitors) or cells.
Cerulein-induced (CER-AP) and L-arginine induced (Arg-AP) acute pancreatitis models were performed in 12-week-old C57BL/6 mice that received 7 hourly i.p. injections of 50 μg/kg cerulein or 3 hourly i.p. injections of 3.3 g/kg Arg; controls received physiologic saline injections. Mice were euthanized for analyses 7 hours after the first cerulein or 24 hours after the first Arg injection. Choline deficient, ethionine-supplemented (CDE) pancreatitis was induced in young (~5-weeks old) female mice fed either CDE or control diet. Mice were euthanized 72 hours after the diet initiation. These models have been described in detail (1-7).
12-week-old WT mice were subjected for 4 consecutive days to daily i.p. injections of 20 mg/kg simvastatin (8,9) or 20 mg/kg T0901317 (10); or 10 mg/kg U18666A for 15 days (11). […]

[2] = system: mouse pancreatic acinar cells; assay: Ex-vivo CCK-AP in mouse pancreatic acinar cells treated with simvastatin or MCD; format: cell-based; settings: simvastatin 4 μM, 3 h or MCD 10 mM, 1 h
Description: FIGS. 26A-26D preventing cholesterol overload ameliorates ex-vivo pancreatitis. Mouse pancreatic acinar cells were incubated (A, B) with simvastatin (4 μM, 3 h) or (C, D) cholesterol chelator, methyl-β-cyclodextrin (MCD; 10 mM, 1 h) and then subjected to CCK-AP for 1 (D) or 3 h (A, B). Cholesterol content (A, C) necrosis (B), and trypsin activity (D) were measured. Each symbol represents an individual cell preparation. Values are mean±SEM*p<0/05, **p<0.01 vs control; #p<0.05 ##p<0.01; vs CCK, no inhibitor.
Ex vivo pancreatitis models were performed on mouse and human acinar cells, and human pancreas slices by incubation with supramaximal CCK (100 nM) or carbachol (1 mM), as described previously (80, 81).
Activities of cathepsin (Cat) B and L, caspase-3, trypsin, and lysosomal acid lipase (LAL) were measured in pancreatic tissue or cell homogenates and subcellular fractions with fluorogenic assays using substrates specific for CatB (Z-Arg-Arg-AMC), CatL (Z-Phe-Arg-AMC), caspase-3-like ([…]), trypsin (Boc-Gln-Ala-Arg-AMC), as previously described (1-4, 6, 7); and for LAL (4-methylumbelliferyl oleate), as in (17). In measurements of CatL activity, the assay buffer also contained 50 μM CA-074me, a CatB inhibitor. LAL activity was measured in the absence and presence of the LAL inhibitor lalistat (100 μM) as the difference between these values (17).
Total cholesterol content was measured with Cholesterol Assay kit per manufacturer's instructions. Samples of mouse pancreas and liver, cell pellet homogenates, subcellular fractions, isolated mitochondria, and serum were diluted in the reaction buffer containing cholesterol probe and incubated at 37° C. for 1 h in the dark. To measure total cholesterol, the samples were subjected to digestion with cholesterol esterase. To measure non-esterified cholesterol, the esterase was omitted from the assay.

[3] = CER-AP, T0901317 or simvastatin 20 mg/kg i.p. daily
[4] = WT mice treated with simvastatin or BemA

With CCC(C)(C)C(=O)O[C@H]1C[C@@H](C)C=C2C=C[C@H](C)[C@H](CC[C@@H]3C[C@@H](O)CC(=O)O3)[C@H]21 [simvastatin] as the molecule, how does the “CER-induced increase in MLN64” value ([1]; CER-AP, 20 mg/kg i.p. daily) read?
The value was “abrogated”.

And the “accumulation of LC3-II” value ([1]; CER-AP, 20 mg/kg i.p. daily)?
Its value is “reduced”.

And the “accumulation of p62” value ([1]; CER-AP, 20 mg/kg i.p. daily)?
The value was “reduced”.

What about the “accumulation of ubiquitylated proteins” value ([1]; CER-AP, 20 mg/kg i.p. daily) of the same molecule?
The value was “reduced”.

What about the “mitochondrial fragmentation (Tom20 IF)” value ([1]; CER-AP, 20 mg/kg i.p. daily) of the same molecule?
Its value is “normalized”.

What about the CHOP levels ([1]; CER-AP, 20 mg/kg i.p. daily, ER stress) of the same molecule?
Its CHOP levels is “decreased”.

What about the “pancreatitis-induced increase in total cholesterol” value [1, 3] of the same molecule?
Its value is “eliminated”.

What about the “pancreatitis-induced increase in trypsin activity” value [1, 3] of the same molecule?
The value was “eliminated”.

And the other pancreatitis responses ([1]; CER-AP, simvastatin 20 mg/kg i.p. daily, FIG. 20C)?
The other pancreatitis responses was “ameliorated”.

And the “pancreas histopathology in CER-AP” value ([1]; H&E, 20 mg/kg i.p. daily)?
Its value is “improved”.

What about the “cholesterol overload in CER-AP (FIG. 25C)” value [1, 4] of the same molecule?
Its value is “decreased”.

And the “inflammation in CER-AP (FIG. 25C)” value [1, 4]?
Its value is “ameliorated”.

What about the “necrosis in CER-AP (FIG. 25C)” value [1, 4] of the same molecule?
Its value is “ameliorated”.

And the “trypsin activity in CER-AP (FIG. 25C)” value [1, 4]?
Its value is “ameliorated”.

And the “pathologic responses of experimental pancreatitis (impaired autophagy, ER stress and others)” value ([1]; discussion statement)?
The value was “reduced”.

And the “experimental pancreatitis in WT mouse and ex vivo models” value ([1]; overall result)?
Its value is “ameliorated”.

And the “cholesterol overload in ex-vivo CCK-AP” value [2]?
Its value is “Reducing”.

What about the “extent of necrosis in ex-vivo CCK-AP” value [2] of the same molecule?
The value was “greatly decreased”.

And the “trypsinogen activation in ex-vivo CCK-AP” value [2]?
The value was “greatly decreased”.

From US20260325485A1, “COMPOSITIONS AND METHODS FOR TREATING PANCREATITIS” (The United States Government as represented by the …, priority 2022, published 2026)
